Test results taken from patent publication EP0477871A2, “Antiviral composition, containing guanine derivatives” (NIPPON KAYAKU KABUSHIKI KAISHA, priority 1990, dated 1992).
Where two headings read alike, the source gives them in different places.

Key:
HSV-1 (VR-3) = assay: Plaque inhibition (growth inhibition) in vero cell monolayer, HSV-1; assay type: cell-based, herpes simplex virus 1 (HSV-1); settings: for IC50: Human alphaherpesvirus 1, Vero, compound alone, read-out: Concentraten at 50% plaque inhibition (IC50), single compound
Method: (§1) A monolayer culture of Cercopithecus sabaeus renal cells (vero cells) was prepared in Eagle's minimum medium containing 10% of newborn calf serum (MEM-CS10) by using a 24-well microplate. Then the medium was inoculated with 50 PFU/0.1 ml/well of herpes simplex virus 1 (HSV-1) or 2 (HSV-2). After effecting adsorption at 37°C for 1 hour, the cells in each well were washed with a phosphate buffer solution (PBS). Next, 0.5% methylcellulose-containing MEM-CS2 containing stepwise diluted OXT-G, ACV or C-OXT-G alone, a combination of OXT-G and ACV, a combination of OXT-G and C-OXT-G or a combination of ACV and C-OXT-G was laminated thereon and incubated at 37°C for 2 days. After discarding the laminated medium and fixing the cells with […], the cells were stained with a Crystal Purple solution and plaques formed in each well were counted. Then the ratio (%) of the plaque count at each concentration to that of the control lot, to which no chemical was added, was determined to thereby give the 50% plaque inhibition concentration (IC₅₀). Thus the inhibitory rate (%) against the concentration of each compound was calculated.

HSV-2 (VW-268) = assay: Plaque inhibition (growth inhibition) in vero cell monolayer, HSV-2; assay type: cell-based, herpes simplex virus 2 (HSV-2); settings: for IC50: Human alphaherpesvirus 2, Vero, compound alone, read-out: Concentraten at 50% plaque inhibition (IC50), single compound
Method: as §1

**Q.** Which IC50 (HSV-1 (VR-3); OXT-G/ACV series) does the source give for Nc1nc2c(ncn2[C@@H]2O[C@H](CO)[C@H]2CO)c(=O)[nH]1 [OXT-G, 9-(2-deoxy-2-hydroxymethyl-β-D-erythrooxetanosyl)guanine] here?
**A.** 7 µg/mL

**Q.** What about the IC50 (HSV-1 (VR-3); OXT-G/C-OXT-G series) of the same compound?
**A.** 7.3 µg/mL

**Q.** And the “OXT-G inhibitory rate (single compound at the same concn., theoretical)” value (HSV-1 (VR-3); OXT-G alone 0.1 μg/mℓ)?
**A.** (1%)

**Q.** And the “OXT-G inhibitory rate (single compound at the same concn., theoretical)” value (HSV-1 (VR-3); OXT-G alone 0.4 μg/mℓ)?
**A.** (3%)

**Q.** What about the “OXT-G inhibitory rate (single compound at the same concn., theoretical)” value (HSV-1 (VR-3); OXT-G alone 1.0 μg/mℓ) of the same compound?
**A.** (7%)

**Q.** And the “OXT-G inhibitory rate (single compound at the same concn., theoretical)” value (HSV-1 (VR-3); OXT-G alone 1.7 μg/mℓ)?
**A.** (12%)

**Q.** What about the “OXT-G inhibitory rate (single compound at the same concn., theoretical)” value (HSV-1 (VR-3); OXT-G alone 3.0 μg/mℓ) of the same compound?
**A.** (26%)

**Q.** And the “OXT-G inhibitory rate (single compound at the same concn., theoretical)” value (HSV-1 (VR-3); OXT-G alone 4.0 μg/mℓ)?
**A.** (29%)

**Q.** And the “OXT-G inhibitory rate (single compound at the same concn., theoretical)” value (HSV-1 (VR-3); OXT-G alone 5.4 μg/mℓ)?
**A.** (39%)

**Q.** What about the OXT-G inhibitory rate (HSV-1 (VR-3); OXT-G alone 7.0 μg/mℓ) of the same compound?
**A.** 50%

**Q.** And the OXT-G inhibitory rate (HSV-1 (VR-3); OXT-G alone 7.3 μg/mℓ)?
**A.** 50%

**Q.** What about the IC50 (HSV-2 (VW-268); OXT-G/ACV series) of the same compound?
**A.** 10 µg/mL

**Q.** What about the “OXT-G inhibitory rate (single compound at the same concn., theoretical)” value (HSV-2 (VW-268); OXT-G alone 0.4 μg/mℓ) of the same compound?
**A.** (2%)

**Q.** What about the “OXT-G inhibitory rate (single compound at the same concn., theoretical)” value (HSV-2 (VW-268); OXT-G alone 1.0 μg/mℓ) of the same compound?
**A.** (5%)

**Q.** And the “OXT-G inhibitory rate (single compound at the same concn., theoretical)” value (HSV-2 (VW-268); OXT-G alone 4.0 μg/mℓ)?
**A.** (20%)

**Q.** And the OXT-G inhibitory rate (HSV-2 (VW-268); OXT-G alone 10.0 μg/mℓ)?
**A.** (50%)

**Q.** With Nc1nc2c(ncn2COCCO)c(=O)[nH]1 [ACV, 9-(2-hydroxyethoxymethyl)guanine, reference compound] as the compound, how does the “ACV inhibitory rate (single compound at the same concn., theoretical)” value (HSV-1 (VR-3); ACV alone 0.04 μg/mℓ) read?
**A.** (2%)

**Q.** And the “ACV inhibitory rate (single compound at the same concn., theoretical)” value (HSV-1 (VR-3); ACV alone 0.08 μg/mℓ)?
**A.** (3%)

**Q.** And the “ACV inhibitin rate (single compound at the same concn., theoretical)” value (HSV-1 (VR-3); ACV alone 0.1 μg/mℓ)?
**A.** (6%)

**Q.** What about the “ACV inhibitory rate (single compound at the same concn., theoretical)” value (HSV-1 (VR-3); ACV alone 0.32 μg/mℓ) of the same compound?
**A.** (12%)

**Q.** What about the “ACV inhibitory rate (single compound at the same concn., theoretical)” value (HSV-1 (VR-3); ACV alone 0.42 μg/mℓ) of the same compound?
**A.** (15%)

**Q.** What about the “ACV inhibitin rate (single compound at the same concn., theoretical)” value (HSV-1 (VR-3); ACV alone 0.58 μg/mℓ) of the same compound?
**A.** (37%)

**Q.** What about the ACV inhibitin rate (HSV-1 (VR-3); ACV alone 0.78 μg/mℓ) of the same compound?
**A.** 50%

**Q.** What about the ACV inhibitory rate (HSV-1 (VR-3); ACV alone 1.4 μg/mℓ) of the same compound?
**A.** 50%

**Q.** What about the IC50 (HSV-1 (VR-3); C-OXT-G/ACV series) of the same compound?
**A.** 0.78 µg/mL

**Q.** What about the IC50 (HSV-1 (VR-3); OXT-G/ACV series) of the same compound?
**A.** 1.4 µg/mL

**Q.** And the “ACV inhibitory rate (single compound at the same concn., theoretical)” value (HSV-2 (VW-268); ACV alone 0.1 μg/mℓ)?
**A.** (2%)

**Q.** What about the “ACV inhibitory rate (single compound at the same concn., theoretical)” value (HSV-2 (VW-268); ACV alone 0.4 μg/mℓ) of the same compound?
**A.** (8%)

**Q.** What about the “ACV inhibitory rate (single compound at the same concn., theoretical)” value (HSV-2 (VW-268); ACV alone 1.3 μg/mℓ) of the same compound?
**A.** (19%)

**Q.** What about the “ACV inhibitory rate (single compound at the same concn., theoretical)” value (HSV-2 (VW-268); ACV alone 1.5 μg/mℓ) of the same compound?
**A.** (30%)

**Q.** What about the “ACV inhibitory rate (single compound at the same concn., theoretical)” value (HSV-2 (VW-268); ACV alone 1.8 μg/mℓ) of the same compound?
**A.** (36%)

**Q.** What about the “ACV inhibitory rate (single compound at the same concn., theoretical)” value (HSV-2 (VW-268); ACV alone 1.9 μg/mℓ) of the same compound?
**A.** (28%)

**Q.** What about the ACV inhibitory rate (HSV-2 (VW-268); ACV alone 2.5 μg/mℓ) of the same compound?
**A.** 50%

**Q.** What about the “ACV inhibitory rate (single compound at the same concn., theoretical)” value (HSV-2 (VW-268); ACV alone 2.7 μg/mℓ) of the same compound?
**A.** (40%)

**Q.** What about the ACV inhibitory rate (HSV-2 (VW-268); ACV alone 3.4 μg/mℓ) of the same compound?
**A.** 50%

**Q.** What about the IC50 (HSV-2 (VW-268); C-OXT-G/ACV series) of the same compound?
**A.** 2.5 µg/mL

**Q.** What about the IC50 (HSV-2 (VW-268); OXT-G/ACV series) of the same compound?
**A.** 3.4 µg/mL

**Q.** Which “C-OXT-G inhibitory rate (single compound at the same concn., theoretical)” value (HSV-1 (VR-3); C-OXT-G alone 0.01 μg/mℓ) does the source give for Nc1nc2c(ncn2[C@@H]2C[C@H](CO)[C@H]2CO)c(=O)[nH]1 [C-OXT-G, (+)-9-[(1R,2R,3S)-2,3-bis(hydroxymethyl)cyclobutyl]guanine] here?
**A.** (2%)

**Q.** And the “C-OXT-G inhibitory rate (single compound at the same concn., theoretical)” value (HSV-1 (VR-3); C-OXT-G alone 0.04 μg/mℓ)?
**A.** (3%)

**Q.** What about the “C-OXT-G inhibitory rate (single compound at the same concn., theoretical)” value (HSV-1 (VR-3); C-OXT-G alone 0.1 μg/mℓ) of the same compound?
**A.** (8%)

**Q.** What about the “C-OXT-G inhibitory rate (single compound at the same concn., theoretical)” value (HSV-1 (VR-3); C-OXT-G alone 0.2 μg/mℓ) of the same compound?
**A.** (33%)

**Q.** What about the C-OXT-G inhibitory rate (HSV-1 (VR-3); C-OXT-G alone 0.3 μg/mℓ) of the same compound?
**A.** 50%

**Q.** And the “C-OXT-G inhibitory rate (single compound at the same concn., theoretical)” value (HSV-1 (VR-3); C-OXT-G alone 0.4 μg/mℓ)?
**A.** (33.3%)

**Q.** And the C-OXT-G inhibitory rate (HSV-1 (VR-3); C-OXT-G alone 0.60 μg/mℓ)?
**A.** 50%

**Q.** And the IC50 (HSV-1 (VR-3); C-OXT-G/ACV series)?
**A.** 0.3 µg/mL

**Q.** And the IC50 (HSV-1 (VR-3); OXT-G/C-OXT-G series)?
**A.** 0.6 µg/mL

**Q.** What about the “C-OXT-G inhibitory rate (single compound at the same concn., theoretical)” value (HSV-2 (VW-268); C-OXT-G alone 0.04 μg/mℓ) of the same compound?
**A.** (3%)

**Q.** What about the “C-OXT-G inhibitory rate (single compound at the same concn., theoretical)” value (HSV-2 (VW-268); C-OXT-G alone 0.1 μg/mℓ) of the same compound?
**A.** (7%)

**Q.** And the “C-OXT-G inhibitory rate (single compound at the same concn., theoretical)” value (HSV-2 (VW-268); C-OXT-G alone 0.3 μg/mℓ)?
**A.** (20%)

**Q.** And the “C-OXT-G inhibitory rate (single compound at the same concn., theoretical)” value (HSV-2 (VW-268); C-OXT-G alone 0.54 μg/mℓ)?
**A.** (36%)

**Q.** What about the C-OXT-G inhibitory rate (HSV-2 (VW-268); C-OXT-G alone 0.74 μg/mℓ) of the same compound?
**A.** 50%

**Q.** What about the IC50 (HSV-2 (VW-268); C-OXT-G/ACV series) of the same compound?
**A.** 0.74 µg/mL
